The values below come from patent US20140155415A1, “BENZ[…] BENZODIOXINE COMPOUNDS THAT INTERACT WITH G[…] FOR THE TREATMENT OF DIABETES” (priority 2011, published 2014).

Structures are written as SMILES.

Test [1] deals with T1, GK-GKRP (interaction between glucokinase and glucokinase regulatory protein) (Homo sapiens, UniProt Q14397).
T1 construct: made in house; host or cells: GKRP: baculovirus system
T1 sequence (Q14397 1-625): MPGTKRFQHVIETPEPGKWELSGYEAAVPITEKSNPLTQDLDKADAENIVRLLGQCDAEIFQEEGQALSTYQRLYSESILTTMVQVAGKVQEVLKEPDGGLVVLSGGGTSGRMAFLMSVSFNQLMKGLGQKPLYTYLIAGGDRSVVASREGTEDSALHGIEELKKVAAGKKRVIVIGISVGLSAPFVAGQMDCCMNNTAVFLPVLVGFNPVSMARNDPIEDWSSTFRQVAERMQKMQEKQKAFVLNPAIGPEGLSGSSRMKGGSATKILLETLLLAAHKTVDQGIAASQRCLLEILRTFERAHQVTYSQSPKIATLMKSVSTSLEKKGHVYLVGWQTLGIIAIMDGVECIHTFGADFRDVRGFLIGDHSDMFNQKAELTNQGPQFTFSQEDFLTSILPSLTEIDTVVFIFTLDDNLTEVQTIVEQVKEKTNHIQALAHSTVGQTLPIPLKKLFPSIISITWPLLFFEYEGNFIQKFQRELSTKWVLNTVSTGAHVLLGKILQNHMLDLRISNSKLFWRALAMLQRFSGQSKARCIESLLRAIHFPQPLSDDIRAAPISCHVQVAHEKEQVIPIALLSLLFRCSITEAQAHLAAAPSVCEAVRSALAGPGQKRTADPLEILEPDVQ
Briefly: GK-GKRP Binding Assay (Binding), AlphaScreen. The note with it: avi-tagged GKRP, GK-fluorescein, AlphaScreen beads, 1 μM sorbitol-6-phosphate; read-out: GK-GKRP IC50 (Binding). As for the experimental part:
GK-GKRP Binding Assay Protocol (Binding)
This assay is used to directly measure the interaction between glucokinase (GK) and glucokinase regulatory protein (GKRP). Begin by preparing the following solutions. Assay Buffer: 20 mM Tris, pH 7.5/0.05% BSA/1 mM DTT/1 μM sorbitol-6-phosphate. […] Combine the following reagents in a white 96-well half area plate. Pipette 14 μl of the diluted avi-tagged GKRP into each well. Add 1 μl of compound to be tested and incubate at room temperature for 20 minutes. After 20 minutes, add 5 μl of assay buffer containing 6 nM GK-fluorescein. […] Incubate in a dark room for 2 hours at room temperature. After 2 hours read the plate using an Envision plate reader (Perkin Elmer, Waltham Mass.).
Recombinant human glucokinase (hepatic) was purified and formulated in 50 mM Tris (pH 7.5), 150 mM NaCl and 20 mM glucose previous to labeling with fluorescein. […] Unreacted dye was removed by extensive dialysis into the final formulation buffer: 25 mM Tris (pH 7.2), 150 mM NaCl, 10% glycerol and 2 mM DTT. The human glucokinase regulatory protein construct was designed with a C-terminal avitag and was expressed in a baculovirus system. Purified GKRP was incubated overnight with recombinant biotin ligase in the presence of D-biotin, ATP and MgCl2. GKRP was isolated from reaction components by chromatography on a Superdex 200 size exclusion column into: 50 mM HEPES, 150 mM NaCl and 5 mM DTT. […] Proteins were quantitated according to their calculated molar extinction coefficients at A280 and were stored at −80° C.
(§1) In the Examples, the assays are referred to as “LCMS/MS” or “Binding.”
(In general: In Alpha technology, singlet oxygen from a donor bead excites a nearby acceptor bead.)

Test [2] concerns the target T2, GK-GKRP (glucokinase / glucokinase regulatory protein) (Homo sapiens, UniProt Q14397).
T2 sequence (Q14397 1-625): T1 sequence (Q14397 1-625)
Briefly: GKRP LC MS/MS Biochemical Assay (LCMS/MS). The note with it: formation of 13C-glucose-6-phosphate from 13C-glucose by LC MS/MS, human His-hepatic GK, fructose-6-phosphate. The procedure:
GKRP LC MS/MS Biochemical Assay (LCMS/MS)
This assay is used to directly measure the formation of ^13C-glucose-6-phosphate from ^13C-glucose by LC MS/MS. Begin by preparing the following solutions: Compound Buffer (CB): 50 mM Tris, pH 7.5/4 mM MgCl2/6% DMSO/fresh 10 mM DTT from 1M frozen stock. Enzyme Buffer (EB): 50 mM Tris, pH 7.5/4 mM MgCl2/6% DMSO/fresh 0.1% BSA/fresh 0.01% Brij-35 (10% BSA and 1% Brij-35 stock). GK (Glucokinase) Working Stock (5×): Dilute human His-hepatic GK to 30 nM in EB buffer. […] Seal the plate and incubate for 30 minutes at room temperature while mixing. After 30 minutes add 10 μl of GK Working Stock (5×). Re-seal the plate and incubate for another 30 minutes at room temperature while mixing. After the second 30 minutes, stop the reaction by the addition of 50 μl of 100% acetonitrile, seal, and mix for 5-10 minutes. Run 10 μl of this sample through the LC MS/MS (API 3200, Applied Biosystems, Carlsbad, Calif.). […]
as §1

The IC50 is the concentration that inhibits the measured activity by half. For orientation: EC50 means the concentration at which the effect is half-maximal. The low end stands for an effect from little substance, the high end for a need for much substance. As for `O=S(=O)(NC(c1cc2ccccc2o1)c1ccccc1F)c1ccc2c(c1)OCCCO2` (racemic) [Example 23, N-(1-benzofuran-2-yl(2-fluorophenyl)methyl)-3,4-dihydro-2H-1,5-benzodioxepine-7-sulfonamide], the IC50 in test [1] came out at 490 nM. In test [2], this molecule yielded an EC50 of 450 nM.
`O=S(=O)(NC(c1cc2ccccc2o1)c1cccs1)c1ccc2c(c1)OCCCO2` (racemic) [Example 31, N-(1-benzofuran-2-yl(2-thiophenyl)methyl)-3,4-dihydro-2H-1,5-benzodioxepine-7-sulfonamide]: the IC50 in test [1] was 3200 nM. In test [2], this molecule had an EC50 of 740 nM.
`O=S(=O)(NC(c1cc2ccccc2o1)c1ccccc1OC(F)(F)F)c1ccc2c(c1)OCCCO2` (racemic) [Example 18, N-(1-benzofuran-2-yl(2-(trifluoromethoxy)phenyl)methyl)-3,4-dihydro-2H-1,5-benzodioxepine-7-sulfonamide]: the IC50 in test [1] was found to be 970 nM. This molecule also displayed an EC50 in test [2] of 340 nM.
On the same counts, the results for `COc1ccccc1[C@@H](NS(=O)(=O)c1ccc2c(c1)OCCCO2)c1nc2cccnc2s1` (single isomer, unassigned) [Example 67 Peak #2] are 48 nM and 24 nM.
On the same counts, the results for `Cc1ccccc1[C@H](NS(=O)(=O)c1ccc2c(c1)OCCCO2)c1cc2ccccc2s1` (single isomer, unassigned) [Example 36 Peak #1] are 4000 nM and more than 20000 nM.
On the same counts, the results for `O=S(=O)(N[C@H](c1ccccc1)c1cc2ccccc2s1)c1ccc2c(c1)OCCCO2` (single isomer, unassigned) [Example 57 Peak #2] are 1900 nM and 87 nM.
Take `C[C@](O)(c1ccnc(-c2cccc3cc([C@@H](NS(=O)(=O)c4ccc5c(c4)OCCCO5)c4ccccc4)sc23)c1)C(F)(F)F` (racemic) [Example 70, N-(phenyl(7-(4-(2,2,2-trifluoro-1-hydroxy-1-methylethyl)-2-pyridinyl)-1-benzothiophen-2-yl)methyl)-3,4-dihydro-2H-1,5-benzodioxepine-7-sulfonamide]: the IC50 in test [1] is 21 nM. In test [2], this molecule registered an EC50 of 26 nM.
In the case of `C=Cc1ccccc1C(NS(=O)(=O)c1ccc2c(c1)OCCCO2)c1cc2ccccc2o1` (racemic) [Example 7, N-(1-benzofuran-2-yl(2-ethenylphenyl)methyl)-3,4-dihydro-2H-1,5-benzodioxepine-7-sulfonamide], the IC50 in test [1] stood at 98 nM. The molecule also showed an EC50 in test [2] of 45 nM.
On the same counts, the results for `Cc1ccc(F)cc1C(NS(=O)(=O)c1ccc2c(c1)OCCCO2)c1cc2ccccc2o1` (racemic) [Example 4, N-(1-benzofuran-2-yl(5-fluoro-2-methylphenyl)methyl)-3,4-dihydro-2H-1,5-benzodioxepine-7-sulfonamide] are 1400 nM and 460 nM.
As for `COc1ccccc1[C@H](NS(=O)(=O)c1ccc2c(c1)OCCCO2)c1cc2ccccc2o1` (single isomer, unassigned) [Example 17 Peak #1], in test [1], the 50% inhibitory concentration (IC50) is 1200 nM. The same molecule registered an EC50 in test [2] of 6100 nM.
For the molecule `O=S(=O)(NC(c1ccccc1)c1cc2cccc(Cl)c2s1)c1ccc2c(c1)OCCCO2` (racemic) [Example 72, N-((7-chloro-1-benzothiophen-2-yl)(phenyl)methyl)-3,4-dihydro-2H-1,5-benzodioxepine-7-sulfonamide], in test [1], the IC50 is 1000 nM. In test [2], this molecule yielded an EC50 of 480 nM.
`CSc1ccccc1[C@@H](NS(=O)(=O)c1ccc2c(c1)OCCCO2)c1cc2ccccc2s1` (single isomer, unassigned) [Example 41 Peak #2]: the IC50 in test [1] turned out to be 8 nM. The molecule also came in with an EC50 in test [2] of 13 nM.
On the same counts, the results for `O=S(=O)(NC(c1cc2ccccc2o1)c1ccccc1Cl)c1ccc2c(c1)OCCCO2` (racemic) [Example 20, N-(1-benzofuran-2-yl(2-chlorophenyl)methyl)-3,4-dihydro-2H-1,5-benzodioxepine-7-sulfonamide] are 220 nM and 70 nM.
For the molecule `Cc1cccnc1C(NS(=O)(=O)c1ccc2c(c1)OCCCO2)c1cc2ccccc2o1` (racemic) [Example 26, N-(1-benzofuran-2-yl(3-methyl-2-pyridinyl)methyl)-3,4-dihydro-2H-1,5-benzodioxepine-7-sulfonamide], in test [1], the IC50 is 420 nM. The same molecule displayed an EC50 in test [2] of 190 nM.
On the same counts, the results for `O=S(=O)(NC(c1ccccc1)c1nc2ccccc2s1)c1ccc2c(c1)OCCCO2` (racemic) [Example 59, N-(1,3-benzothiazol-2-yl(phenyl)methyl)-3,4-dihydro-2H-1,5-benzodioxepine-7-sulfonamide] are 630 nM and 300 nM.
On the same counts, the results for `CSc1ccccc1C(NS(=O)(=O)c1ccc2c(c1)OCCCO2)c1cc2ccncc2s1` (racemic) [Example 64, N-((2-(methylsulfanyl)phenyl)(thieno[2,3-c]pyridin-2-yl)methyl)-3,4-dihydro-2H-1,5-benzodioxepine-7-sulfonamide] are 4 nM and 20 nM.
On the same counts, the results for `O=S(=O)(N[C@H](c1cc2ccccc2o1)c1ccccc1Cl)c1ccc2c(c1)OCCCO2` (single isomer, unassigned) [Example 20 Peak #1] are 5700 nM and more than 20000 nM.
Take `O=S(=O)(N[C@@H](c1cc2ccccc2o1)c1ccccc1Cl)c1ccc2c(c1)OCCCO2` (single isomer, unassigned) [Example 20 Peak #2]: the IC50 in test [1] turned out to be 78 nM. It took 30 nM to reach a half-maximal effect in test [2] (EC50).
On to `O=S(=O)(NC(c1cc2ccccc2o1)c1ccccc1C(F)(F)F)c1ccc2c(c1)OCCCO2` (racemic) [Example 12, N-(1-benzofuran-2-yl(2-(trifluoromethyl)phenyl)methyl)-3,4-dihydro-2H-1,5-benzodioxepine-7-sulfonamide], for which, in test [1], the IC50 is 1000 nM. In addition, it took 320 nM to reach a half-maximal effect in test [2] (EC50).
On the same counts, the results for `COc1ccccc1C(NS(=O)(=O)c1ccc2c(c1)OCCCO2)c1cc2ccccc2s1` (racemic) [Example 40, N-(1-benzothiophen-2-yl(2-methoxyphenyl)methyl)-3,4-dihydro-2H-1,5-benzodioxepine-7-sulfonamide] are 110 nM and 46 nM.
On the same counts, the results for `C[C@](O)(c1ccnc(-c2cccc3cc([C@@H](NS(=O)(=O)c4ccc5c(c4)OCCCO5)c4ccccc4)sc23)c1)C(F)(F)F` (single isomer, unassigned) [Example 70 Peak #4] are 110 nM and 74 nM.
Turning to `Cc1cccc(C)c1C(NS(=O)(=O)c1ccc2c(c1)OCCCO2)c1cc2ccccc2o1` (racemic) [Example 10, N-(1-benzofuran-2-yl(2,6-dimethylphenyl)methyl)-3,4-dihydro-2H-1,5-benzodioxepine-7-sulfonamide], in test [1], the IC50 was determined as 4100 nM. In addition, in test [2], the concentration giving a half-maximal response (EC50) was 3800 nM.
On the same counts, the results for `CSc1ccccc1[C@@H](NS(=O)(=O)c1ccc2c(c1)OCCCO2)c1cc2ccncc2s1` (single isomer, unassigned) [Example 64 Peak #2] are 1 nM and 10 nM.
